# Assays:
# [1] = tested on: all microorganisms tested; assay: Bactericidal effect of 200 ppm gNO, whole panel of microbes (average / all tested); format: cell-based; conditions: saline, average over the bacteria of Table 1
# From the text: A similar procedure was used to determine the time required to induce an effective bactericidal effect with 200 parts per million gNO, a concentration just above the dose used in the dose-ranging study presented hereinabove, on a representative collection of drug resistant gram-positive and gram-negative strains of bacteria associated with clinical infection.
# A successful bactericidal effect was defined as a decrease in bacteria greater than 3 log10 CFU/mL. Further, C. albicans, Methicillin Resistant S. aureus (MRSA), a particularly resistant strain of P. aeruginosa from a cystic fibrosis patient, Group B Streptococcus, and M. smegmatis were also included to evaluate if yeasts, a multi-drug resistant strain of bacteria and actinomycetes have a similar response. These bacteria represent a comprehensive variety of drug resistant bacterial pathogens that contribute to both respiratory and wound infections. The results from these studies laid the foundation for use of gNO at a concentration higher than 160 ppm as an antibacterial agent, specifically for use against bacteria associated with clinical infections.
# For this study, saline was selected as a suspension media because it would not mask the direct effect of gNO as a bactericidal, whereas fully supplemented growth medium might introduce external variables (e.g., buffer or react with gNO). Other media might also provide metabolites and replenish nutrients that produce enzymes that protect bacteria from oxidative and nitrosative damage, thereby masking the effect of gNO. […] In saline, the colonies were static but remained viable. These conditions are similar to the approach previously used in animal models.
# Without exception, every bacteria challenged with 200 ppm gNO had at least a 3 log10 reduction in CFU/mL. […] The latent period was then followed by an abrupt death of all cells; gram negative and gram positive bacteria, antibiotic resistant bacterial strains, yeast and mycobacteria all were susceptible to 200 ppm gNO. […]
# Enterobacter sp. = conditions: 200 ppm gNO, saline; cited from earlier work
# MRSA = conditions: 200 ppm gNO, saline; cited from earlier work
# [2] = Phase I safety study: inspiratory NO2 level during gNO delivery; set-up: species or system human; conditions: inspired gas at mouthpiece
# Description: Subjects were administered gNO through a modified disposable mouthpiece to maximize mixing. Inspiration was spontaneously initiated by the subject from a conventional intermittent positive pressure breathing respirator (Mark-7, Carefusion, USA) in fixed flow mode delivering 48 liters per minute (LPM). Flows of gas were verified with a calibrated mass flow meter (TSI, USA). Gaseous nitric oxide (gNO, obtained at INOmax, Ikaria, USA) at a concentration of 800 ppm delivered at a flow of 12 LPM was titrated into a distal delivery port on the mouth piece connected to the respirator during inspiratory phase only (pressure switch). The Mark 7 respirator was supplied by an air/oxygen blender (Bird Sentry, Carefusion, USA) set to deliver 26% oxygen.
# The levels of gNO, NO2, O2 and methemoglobin were monitored during the administration of gNO. The target gas mixture was 160 ppm gNO with a nitrogen dioxide (NO2) level of less than 5 ppm and an oxygen (O2) level ranging from 21% to 25%. Inspiratory NO, NO2 and O2 levels were continuously monitored by sampling from the mouthpiece sample port located about 6 millimeters from the mouth of the subject with an AeroNOx (Pulmonox, AB, Canada) NO, NO2 and O2 electrochemical analyzer. Delivery safety was determined by the number of occasions that NO2 exceeded 5 ppm, gNO exceeding 10% variation and O2 dropping below 20% during gNO administration. […]
# Pseudomonas aeruginosa = conditions: 160 ppm gNO, intermittent 30 minute exposures, rat; cited from earlier work
# P. aeruginosa = conditions: cited from earlier work
# S. maltophilia = conditions: 200 ppm gNO, saline; cited from earlier work
# MRSA biofilm = conditions: 200 ppm gNO for eight hours (1,600 ppm hours); cited from earlier work
# [3] = Phase I safety study: hematology, clinical chemistry, coagulation; format: in vivo, human
# Description: After obtaining informed consent, treatment was initiated within 5 days of enrollment. Subjects were housed in a hospital ward and received 160 ppm gNO for 30 minutes every four hours (Q4h), five times a day, for five consecutive days by inhalation. Subjects returned for follow-up evaluations 3, 7 and 21 days after the final gNO administration. Subject safety was determined by monitoring vital signs, methemoglobin levels, lung function, blood chemistry, hematology, prothrombin time, inflammatory cytokine/chemokines levels and endothelial activation. These parameters were compared to baseline and at various time-points during and after gNO administration.
# Hematological assessment included a complete blood count and differentials (hemoglobin, hematocrit, red blood cell count, white blood cell count, white blood cell differential, and platelet count) were obtained in order to monitor blood chemistry, hematology and inflammation measurements. The blood chemistry profile included serum creatinine, and liver function tests such as aspartate aminotransferase (AST) serum glutamic oxaloacetic transaminase (SGOT), alkaline phosphatase, and gamma-glutamyl transferase (GGT). The effect of gNO on coagulation was determined by the prothrombin time (PT) and its derived measures of prothrombin ratio (PR) and international normalized ratio (INR). Heparinized plasma was collected at baseline and on days 1, 2, 4, and 5 of gNO administration, and on follow-up days 3, 7 and 21 and frozen at −80° C. Plasma cytokine levels were assessed using the human inflammation cytokine bead array kit (BD Bioscience, Canada). Plasma levels of angiopoietin Ang-1 and Ang-2 were determined by ELISA (R&D Systems, USA).
# S. aureus (Clinical) = conditions: 200 ppm gNO, saline; cited from earlier work
# [4] = rats, gNO concentrations below 200 ppm, 6 hours/day for 28 days; cited from earlier work
# [5] = tested on: all microorganisms tested; conditions: 200 ppm gNO, cited from earlier work
compound,measurement,setting,value
"[N]=O [gNO, nitric oxide]","LD100, Average",[1],4.77 h
same,"Latent Period, Average",[1],2.77 h
same,"−2.5 Log10, Average",[1],3.82 hours
same,LD100,Enterobacter sp.,6 h
same,Latent Period,Enterobacter sp.,4 h
same,−2.5 Log10,Enterobacter sp.,5.3 hours
same,LD100,MRSA,5 h
same,Latent Period,MRSA,3 h
same,−2.5 Log10,MRSA,4.2 hours
same,highest NO2 level recorded during the treatments,[2]; 160 ppm gNO,2.8 ppm
same,mean NO2 level,[2]; 95% confidence level 2.17-2.47 ppm,2.32 ppm
same,pulmonary bioburden and leukocyte infiltration,Pseudomonas aeruginosa,effective to reduce the pulmonary bioburden and leukocyte infiltration
same,survival (downward bactericidal trend towards),"P. aeruginosa; 50-160 ppm gNO, solid media, vs medical air",5-10%
same,reduction of colony formation,"P. aeruginosa; gNO greater than 120 ppm, agar plates",greater than 90%
same,time required to achieve the >90% reduction of colony formation,P. aeruginosa; gNO greater than 120 ppm,8 to 12 h
same,LD100,S. maltophilia,4 h
same,Latent Period,S. maltophilia,2 h
same,−2.5 Log10,S. maltophilia,2.8 hours
same,MRSA in biofilm,MRSA biofilm,shown to reduce MRSA
same,"eosinophil cell numbers, end of study","[3]; baseline 0.15 giga/L, p=0.104",0.19 giga/L
same,"blood coagulation parameters, clinical chemistry and hematological parameters",[3]; baseline to completion of day 5,"no statistically, nor clinically significant changes"
same,"neutrophil cell numbers, end of study","[3]; baseline value of zero, p=0.169",0.01 giga/L
same,LD100,S. aureus (Clinical),4 h
same,Latent Period,S. aureus (Clinical),3 h
same,−2.5 Log10,S. aureus (Clinical),3.7 hours
same,deaths,[4],No deaths occurred
same,bactericidal effect,[5],complete bactericidal effect on all microorganisms tested
same,reduction in CFU/mL,[5]; every bacteria challenged,≥ 3 log10

# Reference: US20150034084A1, “[…] NITRIC OXIDE FOR TREATING RESPIRATORY DISEASES” (Advanced Inhalation Therapies (AIT) Ltd., priority 2012, published 2015)
